Structures can show the parent of a compound that is named as a salt.
Key:
[1] = biological target: T1, proton pump (H+/K+-ATPase) (Sus scrofa, UniProt P19156); test: Measurement of inhibitory effects on proton pump (H+/K+-ATPase) activities; type: biochemical; conditions: hog gastric vesicles, K+-specific H+/K+-ATPase activity, Tris-HCl buffer pH 7.4, 37° C. for 40 minutes, malachite green Pi readout
T1 construct: Gastric vesicles were prepared from hog stomach via centrifugal separation; from tissue; host or cells: hog stomach (gastric vesicles, method of Rabon et al. 1988)
T1 sequence (P19156 whole entry): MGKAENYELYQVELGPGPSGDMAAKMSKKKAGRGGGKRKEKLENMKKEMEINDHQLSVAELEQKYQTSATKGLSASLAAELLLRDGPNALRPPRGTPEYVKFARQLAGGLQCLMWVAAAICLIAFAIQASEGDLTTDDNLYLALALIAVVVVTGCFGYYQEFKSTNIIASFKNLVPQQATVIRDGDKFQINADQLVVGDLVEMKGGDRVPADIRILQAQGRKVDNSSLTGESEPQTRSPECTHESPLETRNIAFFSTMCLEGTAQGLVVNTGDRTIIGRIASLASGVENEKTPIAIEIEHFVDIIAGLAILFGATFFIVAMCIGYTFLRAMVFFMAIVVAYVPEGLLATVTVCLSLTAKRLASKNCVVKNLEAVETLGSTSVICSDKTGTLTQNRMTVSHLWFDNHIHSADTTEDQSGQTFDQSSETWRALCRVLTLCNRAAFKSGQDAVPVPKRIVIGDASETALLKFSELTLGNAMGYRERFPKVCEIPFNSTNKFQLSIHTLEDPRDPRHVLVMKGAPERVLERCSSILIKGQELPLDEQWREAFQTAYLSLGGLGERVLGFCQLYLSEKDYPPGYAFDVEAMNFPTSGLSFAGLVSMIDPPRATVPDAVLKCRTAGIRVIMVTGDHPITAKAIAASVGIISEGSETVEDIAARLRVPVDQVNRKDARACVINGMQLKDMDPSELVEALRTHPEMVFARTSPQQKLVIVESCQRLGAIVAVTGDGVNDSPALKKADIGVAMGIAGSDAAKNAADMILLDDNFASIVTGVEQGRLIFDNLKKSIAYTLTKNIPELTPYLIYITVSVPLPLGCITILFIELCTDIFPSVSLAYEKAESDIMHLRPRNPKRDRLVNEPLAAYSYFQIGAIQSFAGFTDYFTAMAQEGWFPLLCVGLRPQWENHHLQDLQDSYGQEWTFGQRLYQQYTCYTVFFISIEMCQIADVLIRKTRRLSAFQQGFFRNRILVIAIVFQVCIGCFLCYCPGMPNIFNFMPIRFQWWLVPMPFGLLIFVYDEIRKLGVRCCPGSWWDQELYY
T1 sequence (P18434 whole entry partner): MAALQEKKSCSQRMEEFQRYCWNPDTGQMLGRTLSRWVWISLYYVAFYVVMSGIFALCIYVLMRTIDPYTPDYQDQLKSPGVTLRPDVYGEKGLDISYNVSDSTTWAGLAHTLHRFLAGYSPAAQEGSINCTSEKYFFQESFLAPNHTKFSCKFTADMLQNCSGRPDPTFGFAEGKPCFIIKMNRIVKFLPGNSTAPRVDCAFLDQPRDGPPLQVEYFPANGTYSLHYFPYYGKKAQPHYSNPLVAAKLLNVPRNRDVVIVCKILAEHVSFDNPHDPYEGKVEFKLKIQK
Summary of the method: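 Hog gastric vesicles in 60 mmol/l Tris-HCl pH 7.4 with 0.5% DMSO were treated with compounds at room temperature; reaction was started with 10 μl of 10 mmol/l ATP stock. Released Pi was read at 570 nm, K+-specific activity taken as the ±K+ difference. IC50 from 4-parameter logistic fit.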

[2] = test system: basal gastric acid secretion; test: Inhibitory effect on the basal gastric acid secretion in pylorus-ligated rats (Shay's rat model); type: in vivo, Sprague Dawley (SD) rats; conditions: 5 h, male SD rats, 3 mg/kg/2 ml into the duodenum, five hours after the ligation, total gastric acid secretion vs control group
Protocol: 3) Inhibitory Effect on the Basal Gastric Acid Secretion in Pylorus-Ligated Rats
Assays for determining inhibitory effect of the compounds of the present invention on the basal gastric acid secretion was performed according to Shay's rat model (Shay, H., et al., 1945, gastroenterology, 5, p. 43-61). Male Sprague Dawley (SD) rats with a body weight in the range of 180˜220 g were divided into test (n=5) and control groups (n=5), and fasted for 18 hours with free access to water. Under isoflurane anesthesia, the abdomens of the rats were incised and then the pylorus was ligated. After the ligation, the control groups were administered with only 10% ethanol, 20% polyethylene glycol (PEG) 400, and 10% aqueous Cremophor solution through the duodenum, and the other groups were administered with test compounds suspended in 10% ethanol, 20% PEG 400, and 10% aqueous Cremophor solution at a concentration of 3 mg/kg/2 ml into the duodenum. Five hours after the ligation, the experimental animals were euthanized and their stomach contents were collected. The thus obtained contents were centrifuged at 4,000×g for 10 minutes, and the supernatant was recovered to obtain gastric juice therefrom. The amount of the gastric juice and its pH were measured. The acidity of the gastric juice was determined by 0.1 N-NaOH volume (ueq/mL) for automatic titration of gastric acid to pH 7.0. The total acid output was obtained by multiplying the gastric acidity by the amount of gastric juice. Inhibition Activity (%) of Test Compounds=(total gastric acid secretion in control group−total gastric acid secretion in groups treated with test compounds)/total gastric acid secretion in control group×100

| Structure (SMILES) | IC50 [1] [nM] | inhibition in vivo at 3 mg/kg [2] [%] |
| --- | --- | --- |
| CNCc1cn(S(=O)(=O)c2cccnc2)c2cc(Nc3ccc(OC)nc3Cl)ccc12 [Example 123, N-(2-chloro-6-methoxypyridin-3-yl)-3-((methylamino)methyl)-1-(pyridin-3-ylsulfonyl)-1H-indol-6-amine hydrochloride] | 350 | 40 |
| CNCc1cn(S(=O)(=O)c2cccnc2)c2cc(Nc3ccc(C(F)(F)F)nc3Cl)ccc12 [Example 125, N-(2-chloro-6-(trifluoromethyl)pyridin-3-yl)-3-((methylamino)methyl)-1-(pyridin-3-ylsulfonyl)-1H-indol-6-amine hydrochloride] | 1060 | 45 |
| CNCc1cn(S(=O)(=O)c2cccnc2)c2cc(Nc3ccnc(Cl)c3Br)ccc12 [Example 133, N-(3-bromo-2-chloropyridin-4-yl)-3-((methylamino)methyl)-1-(pyridin-3-ylsulfonyl)-1H-indol-6-amine hydrochloride] | 770 | 40 |
| CNCc1cn(S(=O)(=O)c2cccc(F)c2)c2cc(Nc3ccc(F)cc3C)ccc12 [Example 138, N-(4-fluoro-2-methylphenyl)-1-((3-fluorophenyl)sulfonyl)-3-((methylamino)methyl)-1H-indol-6-amine hydrochloride] | 120 | 55 |
| CNCc1cn(S(=O)(=O)c2cccc(F)c2)c2cc(Nc3ccc(OC)cc3F)ccc12 [Example 139, N-(2-fluoro-4-methoxyphenyl)-1-((3-fluorophenyl)sulfonyl)-3-((methylamino)methyl)-1H-indol-6-amine hydrochloride] | 180 | 40 |
| CNCc1cn(S(=O)(=O)c2cccc(F)c2)c2cc(Nc3ccc(Cl)nc3OC)ccc12 [Example 141, N-(6-chloro-2-methoxypyridin-3-yl)-1-((3-fluorophenyl)sulfonyl)-3-((methylamino)methyl)-1H-indol-6-amine hydrochloride] | 390 | 51 |
| CNCc1cn(S(=O)(=O)c2cccc(F)c2)c2cc(Nc3ccc(Cl)nc3Cl)ccc12 [Example 142, N-(2,6-dichloropyridin-3-yl)-1-((3-fluorophenyl)sulfonyl)-3-((methylamino)methyl)-1H-indol-6-amine hydrochloride] | 120 | 42 |
| CNCc1cn(S(=O)(=O)c2cccc(F)c2)c2cc(Nc3ccc(Cl)nc3C(F)(F)F)ccc12 [Example 143, N-(6-chloro-2-(trifluoromethyl)pyridin-3-yl)-1-((3-fluorophenyl)sulfonyl)-3-((methylamino)methyl)-1H-indol-6-amine hydrochloride] | 290 | 53 |
| CNCc1cn(S(=O)(=O)c2cccc(F)c2)c2cc(Nc3ccc(OC)nc3Cl)ccc12 [Example 144, N-(2-chloro-6-methoxypyridin-3-yl)-1-((3-fluorophenyl)sulfonyl)-3-((methylamino)methyl)-1H-indol-6-amine hydrochloride] | 380 | 53 |
| CNCc1cn(S(=O)(=O)c2cccc(F)c2)c2cc(Nc3ccc(C(F)(F)F)nc3Cl)ccc12 [Example 145, N-(2-chloro-6-(trifluoromethyl)pyridin-3-yl)-1-((3-fluorophenyl)sulfonyl)-3-((methylamino)methyl)-1H-indol-6-amine hydrochloride] | 170 | 45 |
| CNCc1cn(S(=O)(=O)c2cccc(Cl)c2)c2cc(Nc3ccc(C)cc3OC(F)(F)F)ccc12 [Example 148, 1-((3-chlorophenyl)sulfonyl)-N-(4-methyl-2-(trifluoromethoxy)phenyl)-3-((methylamino)methyl)-1H-indol-6-amine hydrochloride] | 10 | 45 |
| CNCc1cn(S(=O)(=O)c2cccc(Cl)c2)c2cc(Nc3ccc(OC)cc3F)ccc12 [Example 153, 1-((3-chlorophenyl)sulfonyl)-N-(2-fluoro-4-methoxyphenyl)-3-((methylamino)methyl)-1H-indol-6-amine hydrochloride] | 260 | 42 |
| CNCc1cn(S(=O)(=O)c2cccc(Cl)c2)c2cc(Nc3ccc(OC)nc3Cl)ccc12 [Example 160, N-(2-chloro-6-methoxypyridin-3-yl)-1-((3-chlorophenyl)sulfonyl)-3-((methylamino)methyl)-1H-indol-6-amine hydrochloride] | 290 | 57 |
| CNCc1cn(S(=O)(=O)c2cccc(OC(F)F)c2)c2cc(Nc3ccc(OC)nc3Cl)ccc12 [Example 182, N-(2-chloro-6-methoxypyridin-3-yl)-1-((3-(difluoromethoxy)phenyl)sulfonyl)-3-((methylamino)methyl)-1H-indol-6-amine hydrochloride] | 390 | 44 |
| CNCc1cn(S(=O)(=O)c2cncc(F)c2)c2cc(Nc3ccc(C)cc3F)ccc12 [Example 210, N-(2-fluoro-4-methylphenyl)-1-((5-fluoropyridin-3-yl)sulfonyl)-3-((methylamino)methyl)-1H-indol-6-amine hydrochloride] | 370 | 43 |
| CNCc1cn(S(=O)(=O)c2cncc(F)c2)c2cc(Nc3ccc(C)cc3Cl)ccc12 [Example 211, N-(2-chloro-4-methylphenyl)-1-((5-fluoropyridin-3-yl)sulfonyl)-3-((methylamino)methyl)-1H-indol-6-amine hydrochloride] | 90 | 43 |
| CNCc1cn(S(=O)(=O)c2cncc(F)c2)c2cc(Nc3ccc(F)cc3C)ccc12 [Example 212, N-(4-fluoro-2-methylphenyl)-1-((5-fluoropyridin-3-yl)sulfonyl)-3-((methylamino)methyl)-1H-indol-6-amine hydrochloride] | 180 | 56 |
| CNCc1cn(S(=O)(=O)c2cncc(F)c2)c2cc(Nc3ccc(F)cc3Cl)ccc12 [Example 213, N-(2-chloro-4-fluorophenyl)-1-((5-fluoropyridin-3-yl)sulfonyl)-3-((methylamino)methyl)-1H-indol-6-amine hydrochloride] | 160 | 50 |
| CNCc1cn(S(=O)(=O)c2cncc(F)c2)c2cc(Nc3ccc(OC)cc3OC(F)(F)F)ccc12 [Example 214, 1-((5-fluoropyridin-3-yl)sulfonyl)-N-(4-methoxy-2-(trifluoromethoxy)phenyl)-3-((methylamino)methyl)-1H-indol-6-amine hydrochloride] | 1690 | 75 |
| CNCc1cn(S(=O)(=O)c2cncc(F)c2)c2cc(Nc3ccc(OC(F)(F)F)cc3OC)ccc12 [Example 216, 1-((5-fluoropyridin-3-yl)sulfonyl)-N-(2-methoxy-4-(trifluoromethoxy)phenyl)-3-((methylamino)methyl)-1H-indol-6-amine hydrochloride] | 1500 | 69 |
| CNCc1cn(S(=O)(=O)c2cncc(F)c2)c2cc(Nc3ccc(OC)nc3Cl)ccc12 [Example 217, N-(2-chloro-6-methoxypyridin-3-yl)-1-((5-fluoropyridin-311)sulfonyl)-3-((methylamino)methyl)-1H-indol-6-amine hydrochloride] | 540 | 44 |

Reference: patent publication US9676714B2, “Sulfonylindole derivatives and method for preparing the same” (Daewoong Pharmaceutical Co., Ltd., priority 2013, dated 2017)
